We go through 15 compounds from US20240317744A1, “Bicyclic Ureas As Kinase Inhibitors” (Incyte Corporation, priority 2023, published 2024).

Where only a bound is given, the exact number is not on record here.

Assay [1] deals with T1, pseudo-kinase domain (JH2, amino-acids 536-812) of human V617F mutant JAK2 (Homo sapiens, UniProt O60674, F794H/V617F/W659A/W777A).
T1 construct: pseudo-kinase domain (JH2, amino-acids 536-812 with 3 surface mutations W659A, W777A, F794H); His (C); purchased BPS Bioscience 79498; host or cells: baculovirus expression system
The experiment in a line: JAK2 LanthaScreen JH2-V617F Binding Assay. The note with it: JAK2 JH2-V617F 0.26 nM, 50 nM tracer, 1 hour at 25° C.; read-out: JH2 BIND V617F. The method, then:
Example C. JAK2 LanthaScreen JH2-V617F Binding Assay
JAK2 JH2-V617F binding assay utilizes pseudo-kinase domain (JH2, amino-acids 536-812 with 3 surface mutations W659A, W777A, F794H) of human V617F mutant JAK2 expressed as C-terminal His-Avi-tagged, biotinylated protein in a baculovirus expression system (BPS Bioscience, Catalog #79498). The assay was conducted in black 384-well polystyrene plates in a final reaction volume of 20 μL. JAK2 JH2-V617F (0.26 nM) was incubated with compounds (100 nL serially diluted in DMSO) in the presence of 50 nM Fluorescent JAK2-JH2 Tracer (MedChem Express Catalog #HY-102055) and 0.25 nM Streptavidin-Tb cryptate (Cisbio Part #610SATLB) in assay buffer (50 mM Tris, pH=7.5, 10 mM MgCl2, 0.01% Brij-35, 0.1% BSA, 1 mM EGTA, 5% Glycerol and 5 mM DTT). Non-specific binding was accessed in the presence of 2 mM ATP. After incubation for 1 hour at 25° C., LanthaScreen signals were read on a PHERAstar FS plate reader (BMG LABTECH). Data was analyzed with IDBS XLfit and GraphPad Prism 5.0 software using a four parameter dose response curve to determine IC50 for each compound.

The target in assay [2] is catalytic domain (JH1, amino acids 808-1132) of human JAK2 (Homo sapiens, UniProt O60674). Briefly: JAK2 HTRF Enzyme Activity Assay. Type of assay: biochemical. The note with it: ATP 30 µM, 60 minutes at 25° C.; read-out: V617F ENZ 30 UM.
Sequence of catalytic domain (JH1, amino acids 808-1132) of human JAK2 (O60674 808-1132 limits assumed): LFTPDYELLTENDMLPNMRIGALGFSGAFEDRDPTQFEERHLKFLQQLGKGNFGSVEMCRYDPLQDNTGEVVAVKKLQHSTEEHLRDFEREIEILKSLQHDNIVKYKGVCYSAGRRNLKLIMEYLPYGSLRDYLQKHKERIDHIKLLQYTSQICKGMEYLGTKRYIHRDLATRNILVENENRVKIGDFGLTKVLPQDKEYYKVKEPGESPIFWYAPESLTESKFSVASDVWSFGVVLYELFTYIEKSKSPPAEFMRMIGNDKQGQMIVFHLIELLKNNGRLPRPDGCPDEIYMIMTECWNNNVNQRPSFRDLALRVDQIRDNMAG

T1 sequence (O60674 536-812 V617F/W659A/W777A/F794H): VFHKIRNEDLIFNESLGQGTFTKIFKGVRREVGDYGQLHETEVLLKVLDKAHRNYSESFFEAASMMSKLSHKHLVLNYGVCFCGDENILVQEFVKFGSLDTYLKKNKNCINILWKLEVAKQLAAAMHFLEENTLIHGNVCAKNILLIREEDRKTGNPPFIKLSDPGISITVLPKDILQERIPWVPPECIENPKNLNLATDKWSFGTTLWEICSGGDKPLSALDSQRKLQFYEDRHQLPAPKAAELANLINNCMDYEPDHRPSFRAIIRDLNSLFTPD

Take `[2H]C1(NC(=O)OC)CC[C@@H](n2c(=O)n(C([2H])([2H])[2H])c3cnc(Nc4ccc5c(n4)c(-c4cnn(C(F)(F)F)c4)nn5CC(C)(C)O)cc32)C1` (single isomer, unassigned) [Example 124]: the IC50 in assay [1] is no more than 10 nM; in assay [2] it was greater than 1000 nM.

On to `[2H]C1(NC(=O)OC)CC[C@@H](n2c(=O)n(C([2H])([2H])[2H])c3cnc(Nc4ccc5c(n4)c(-c4cnn(C(F)(F)F)c4)nn5CC(C)(C)O)cc32)C1` (single isomer, unassigned) [Example 125], for which the IC50 in assay [1] was no more than 10 nM; in assay [2], greater than 1000 nM.

Take `[2H]C([2H])([2H])n1c(=O)n([C@@H]2CC[C@@H](NC(=O)OC)C2)c2cc(Nc3ccc4c(n3)c(-c3cnn(C(F)(F)F)c3)cn4C3CCOCC3)ncc21` [Example 109, Methyl ((1R,3R)-3-(3-(methyl-d3)-2-oxo-6-((1-(tetrahydro-2H-pyran-4-yl)-3-(1-(trifluoromethyl)-1H-pyrazol-4-yl)-1H-pyrrolo[3,2-b]pyridin-5-yl)amino)-2,3-dihydro-1H-imidazo[4,5-c]pyridin-1-yl)cyclopentyl)carbamate]: the IC50 is no more than 10 nM in assay [1] and greater than 1000 nM in assay [2].

As to `[2H]C([2H])([2H])n1c(=O)n([C@@H]2CC[C@@H](NC(=O)OC)C2)c2cc(Nc3ccc4c(n3)c(-c3cnn(C(F)(F)F)c3)cn4CC(C)(C)O)ncc21` [Example 110, Methyl ((1R,3R)-3-(6-((1-(2-hydroxy-2-methylpropyl)-3-(1-(trifluoromethyl)-1H-pyrazol-4-yl)-1H-pyrrolo[3,2-b]pyridin-5-yl)amino)-3-(methyl-d3)-2-oxo-2,3-dihydro-1H-imidazo[4,5-c]pyridin-1-yl)cyclopentyl)carbamate], the values for the IC50 in assay [1] and in assay [2] were no more than 10 nM and greater than 1000 nM, respectively.

As for `[2H]C1(NC(=O)OC)CC[C@@H](n2c(=O)n(C([2H])([2H])[2H])c3cnc(Nc4ccc5c(n4)c(-c4cnn(C(F)(F)F)c4)cn5C4CCOCC4)cc32)C1` (stereo partly drawn) [Example 111, Methyl ((3R)-3-(3-(methyl-d3)-2-oxo-6-((1-(tetrahydro-2H-pyran-4-yl)-3-(1-(trifluoromethyl)-1H-pyrazol-4-yl)-1H-pyrrolo[3,2-b]pyridin-5-yl)amino)-2,3-dihydro-1H-imidazo[4,5-c]pyridin-1-yl)cyclopentyl-1-d)carbamate], the IC50 in assay [1] was no more than 10 nM; in assay [2], greater than 1000 nM.

Regarding `[2H]C1(NC(=O)OC)CC[C@@H](n2c(=O)n(C([2H])([2H])[2H])c3cnc(Nc4ccc5c(n4)c(-c4cnn(C(F)(F)F)c4)cn5C4([2H])CCOCC4)cc32)C1` (stereo partly drawn) [Example 112, Methyl ((3R)-3-(3-(methyl-d3)-2-oxo-6-((1-(tetrahydro-2H-pyran-4-yl-4-d)-3-(1-(trifluoromethyl)-1H-pyrazol-4-yl)-1H-pyrrolo[3,2-b]pyridin-5-yl)amino)-2,3-dihydro-1H-imidazo[4,5-c]pyridin-1-yl)cyclopentyl-1-d)carbamate], the IC50 is no more than 10 nM in assay [1] and greater than 1000 nM in assay [2].

`[2H]C1(NC(=O)OC)CC[C@@H](n2c(=O)n(C([2H])([2H])[2H])c3cnc(Nc4ccc5c(n4)c(-c4cnn(C(F)(F)F)c4)cn5C4(C#N)CC4)cc32)C1` (stereo partly drawn) [Example 113, Methyl ((3R)-3-(6-((1-(1-cyanocyclopropyl)-3-(1-(trifluoromethyl)-1H-pyrazol-4-yl)-1H-pyrrolo[3,2-b]pyridin-5-yl)amino)-3-(methyl-d3)-2-oxo-2,3-dihydro-1H-imidazo[4,5-c]pyridin-1-yl)cyclopentyl-1-d)carbamate]: the IC50 in assay [1] is no more than 10 nM; in assay [2], greater than 1000 nM.

`[2H]C([2H])([2H])n1c(=O)n([C@@H]2CC[C@](C)(NC(=O)C3CC3)C2)c2cc(Nc3ccc4nn([C@H]5C[C@@H](O)C5)c(-c5cnn(C(F)(F)F)c5)c4n3)ncc21` [Example 121, N-((1S,3R)-3-(6-((2-((1s,3s)-3-Hydroxycyclobutyl)-3-(1-(trifluoromethyl)-1H-pyrazol-4-yl)-2H-pyrazolo[4,3-b]pyridin-5-yl)amino)-3-(methyl-d3)-2-oxo-2,3-dihydro-1H-imidazo[4,5-c]pyridin-1-yl)-1-methylcyclopentyl)cyclopropanecarboxamide]: the IC50 was no more than 10 nM in assay [1] and greater than 1000 nM in assay [2].

In the case of `[2H]C([2H])([2H])n1c(=O)n([C@@H]2CC[C@@H](NC(=O)OC)C2)c2cc(Nc3ccc4nn(CC(C)(C)O)c(-c5cnn(C(F)(F)F)c5)c4n3)ncc21` [Example 122, Methyl ((1R,3R)-3-(6-((2-(2-hydroxy-2-methylpropyl)-3-(1-(trifluoromethyl)-1H-pyrazol-4-yl)-2H-pyrazolo[4,3-b]pyridin-5-yl)amino)-3-(methyl-d3)-2-oxo-2,3-dihydro-1H-imidazo[4,5-c]pyridin-1-yl)cyclopentyl)carbamate], the IC50 in assay [1] was no more than 10 nM; in assay [2] it was greater than 1000 nM.

On to `[2H]C([2H])([2H])n1c(=O)n([C@@H]2CC[C@](C)(NC(=O)C3CC3)C2)c2cc(Nc3ccc4nn(CC(C)(C)O)c(-c5cnn(C(F)(F)F)c5)c4n3)ncc21` [Example 123, N-((1S,3R)-3-(6-((2-(2-Hydroxy-2-methylpropyl)-3-(1-(trifluoromethyl)-1H-pyrazol-4-yl)-2H-pyrazolo[4,3-b]pyridin-5-yl)amino)-3-(methyl-d3)-2-oxo-2,3-dihydro-1H-imidazo[4,5-c]pyridin-1-yl)-1-methylcyclopentyl)cyclopropanecarboxamide], for which the IC50 in assay [1] is no more than 10 nM; in assay [2], greater than 1000 nM.

For the compound `[2H]C([2H])([2H])n1c(=O)n([C@H]2CC[C@@](C)(NC(=O)C3CC3)CC2)c2cc(Nc3ccc4c(n3)c(-c3cnn(C(F)(F)F)c3)nn4[C@H]3CC[C@H](O)CC3)ncc21` [Example 126, N-((1s,4s)-4-(6-((1-((1r,4r)-4-Hydroxycyclohexyl)-3-(1-(trifluoromethyl)-1H-pyrazol-4-yl)-1H-pyrazolo[4,3-b]pyridin-5-yl)amino)-3-(methyl-d3)-2-oxo-2,3-dihydro-1H-imidazo[4,5-c]pyridin-1-yl)-1-methylcyclohexyl)cyclopropanecarboxamide], the IC50 is no more than 10 nM in assay [1] and greater than 1000 nM in assay [2].

Regarding `[2H]C([2H])([2H])n1c(=O)n([C@H]2CC[C@@](C)(NC(=O)C3CC3)CC2)c2cc(Nc3cc(C(=O)N4CCOCC4)c4nn(C)c(-c5cnn(C(F)(F)F)c5)c4n3)ncc21` [Example 127, N-((1s,4s)-1-Methyl-4-(3-(methyl-d3)-6-((2-methyl-7-(morpholine-4-carbonyl)-3-(1-(trifluoromethyl)-1H-pyrazol-4-yl)-2H-pyrazolo[4,3-b]pyridin-5-yl)amino)-2-oxo-2,3-dihydro-1H-imidazo[4,5-c]pyridin-1-yl)cyclohexyl)cyclopropanecarboxamide], the IC50 in assay [1] was no more than 10 nM; in assay [2] it was greater than 1000 nM.

Take `[2H]C([2H])([2H])n1c(=O)n([C@@H]2CC[C@](C)(NC(=O)OC)C2)c2cc(Nc3ccc4c(n3)c(-c3cnn(C(F)(F)F)c3)nn4CC(C)(C)O)ncc21` [Example 128, Methyl ((1S,3R)-3-(6-((1-(2-hydroxy-2-methylpropyl)-3-(1-(trifluoromethyl)-1H-pyrazol-4-yl)-1H-pyrazolo[4,3-b]pyridin-5-yl)amino)-3-(methyl-d3)-2-oxo-2,3-dihydro-1H-imidazo[4,5-c]pyridin-1-yl)-1-methylcyclopentyl)carbamate]: the results for the IC50 in assay [1] and in assay [2] were no more than 10 nM and greater than 1000 nM, respectively.

Regarding `[2H]C([2H])([2H])n1c(=O)n([C@@H]2CC[C@](C)(NC(C)=O)C2)c2cc(Nc3ccc4c(n3)c(-c3cnn(C(F)(F)F)c3)nn4CC(C)(C)O)ncc21` [Example 129, N-((1S,3R)-3-(6-((1-(2-Hydroxy-2-methylpropyl)-3-(1-(trifluoromethyl)-1H-pyrazol-4-yl)-1H-pyrazolo[4,3-b]pyridin-5-yl)amino)-3-(methyl-d3)-2-oxo-2,3-dihydro-1H-imidazo[4,5-c]pyridin-1-yl)-1-methylcyclopentyl)acetamide], the IC50 in assay [1] is no more than 10 nM; in assay [2] it was greater than 1000 nM.

With `[2H]C1(NC(=O)OC)CC[C@@H](n2c(=O)n(C([2H])([2H])[2H])c3cnc(Nc4cc(C(C)(C)O)c5[nH]cc(-c6cnn(C(F)(F)F)c6)c5n4)cc32)C1` (stereo partly drawn) [Example 130, Methyl ((3R)-3-(6-((7-(2-hydroxypropan-2-yl)-3-(1-(trifluoromethyl)-1H-pyrazol-4-yl)-1H-pyrrolo[3,2-b]pyridin-5-yl)amino)-3-(methyl-d3)-2-oxo-2,3-dihydro-1H-imidazo[4,5-c]pyridin-1-yl)cyclopentyl-1-d)carbamate], the figures for the IC50 in assay [1] and in assay [2] were no more than 10 nM and greater than 1000 nM, respectively.
